US4632922A, “Oxomorpholinyl dimer and rescue of anthracycline and mitomycin C damage” (The United States of America as represented by the …, priority 1985, dated 1986)

Columns and labels:
[1] = Kinetic measurements of TM3 reactivity with anthracycline compounds in methanol solvent; settings: reaction with TM3, 25° C.
Experimental: Kinetic measurements of TM3 reactivity
with anthracycline compounds at 25° C. in methanol solvent.

[2] = tested on: swine skin; assay: Skin lesions after intradermal DOX in swine; format: in vivo, miniature white swine
Experimental: In order to produce anthracycline induced tissue damage, clinical grade doxorubicin (DOX) hydrochloride was obtained as a representative anthracycline chemical from the Drug Synthesis Branch, Developmental Therapeutics Program, National Cancer Institute. Each vial contained 10 mg DOX hydrochloride and 50 mg lactose which was reconstituted with 5.0 ml sterile 0.9% NaCl solution to give a final drug concentration of 2.0 mg/ml. DHM3 solution was prepared by dissolving 10 mg in ice-cold water which had been purged with N2 gas for 5 minutes. Dissolution was facilitated by brief sonication to give a final concentration of 10 mg/ml. The solution was kept cold (≈4° C.) and protected from air and light.
Female weanling miniature white swine weighing approximately 12 kg were obtained from the Veterinary Resources Branch, National Institutes of Health. The development of this strain of swine has been described previously (Sachs, et al., Transplantation 22:559-567, 1976). Each animal was housed in a 6×4 ft metabolic cage and was fed standard NIH show chow, 1.5 lbs twice daily.
DOX HCl (2.0 mg/ml) was administered intradermally (i.d.) with a 25 gauge needle inserted approximately 4 to 5 mm into the skin. Following the injection of 0.5, 0.75 or 1.0 ml (1.0, 1.5, or 2.0 mg, respectively) DOX solution, the syringe was removed from the hub leaving the needle in place. After the indicated time interval, 1.0 ml (10 mg) DHM3 was injected through the same needle and the needle was then removed. Control sites received 1.0 ml sterile water instead of DHM3. The injection sites were along the mid-lateral aspect of each side of the swine and were 4-5 cm apart (6-8 injection sites per side). One animal was used for a dose experiment where DOX, 0.5 ml/site was injected along one side and 1.0 ml/site was injected along the contralateral side. Fifteen minutes later, DHM3 or water was injected into alternating sites as described above. A second animal received DOX, 0.75 ml/site along both sides. DHM3 or water was injected into alternating sites at times varying from 5 to 120 minutes following DOX administration.
All lesions were measured by a single observer with metric calipers three times weekly for two weeks, followed by weekly measurements thereafter. The areas of skin ulceration and induration were estimated by the product of the cross perpendicular diameters. The total toxicity of DOX-induced skin ulceration was determined by calculating the area under the ulceration-time curve (AUC) in mm^2 -days.
In order to assess the extent of tissue injury following intradermal DOX or DHM3, incisional biopsies were performed on representative lesions 6 and 20 days following drug injection. These samples were placed in 10% buffered formalin and processed for examination by standard light microscopy (Pathco Inc., Potomac, MD.).

[3] = tested on: DOX-induced injury; settings: cited from earlier work; for reduction of size of ulceration: animal models
[4] = Solubility of 7-deoxydaunorubicinone in the aqueous reaction medium; format: physicochemical; settings: water, pH8
[5] = Kinetics of reaction of DHM3 with daunorubicin in water solvent; settings: over the first 85 sec, water, 10° C., ten-fold excess DHM3
Experimental: A test similar to that described for the same reaction in methanol solvent (vide supra) was run. Oxomorpholinyl dimer DHM3 (1.38 mg, 4.37×10^-3 mmol) was dissolved in 0.5 ml of oxygen-free methanol and quickly transferred without delay into one compartment of the cell. The solvent was promptly removed under vacuum. Daunorubicin hydrochloride ([…]) was dissolved in 100 ml of an aqueous solution of Tris (24.2 mg) and Tris hydrochloride (31.6 mg) and 2.6 ml of this solution (4.18×10^-4 mmol of 6) was introduced into the other compartment of the cell. The sample was freeze-thaw degassed over three cycles as described above, sealed, and placed in a thermostatted cell holder at 10.0±0.1° C. for about 20 min prior to mixing. Full spectra between 320 and 800 nm were recorded every 10 sec for the first 125 sec, and then every 20 sec. From the absorbance change at 620 nm over the first 85 sec (50% reaction of daunorubicin), a non-linear least-squares treatment gave a first order rate constant for bond homolysis of DHM3 (k1) equal to 6×10^-4 sec^-1 and a first order rate constant for destruction of 7 (k2) equal to 2×10^-2 sec^-1. Treatment of the data obtained in the 164-225 sec interval gave k2 =2.8×10^-2 sec^-1.
Thus, when a ten-fold excess of DHM3 is reacted with an oxygen-free 2×10^-4 M solution of 6 in buffered water (pH8) at 10° C., the absorbance of the solution at 618-620 nm, due to the tautomer 7, reaches its maximum after 125 sec and then decreases quickly, with an 80% decrease in 100 sec. Here again the formation and destruction of 7, as calculated from the data obtained in the first 85 sec of reaction, follows consecutive first order kinetics, first order in DHM3 and 7, with k1 =6×10^-4 sec^-1, k2 =2×10^-2 sec^-1 and ε7 =9600. Calculation of k2 from the absorbance data taken after 165 sec of reaction time, when only first order destruction of 7 is observed, gives a value of 2.8×10^-2 sec^-1.

With CC(=O)C1(O)Cc2c(O)c3c(c(O)c2C(OC2CC(N)C(O)C(C)O2)C1)C(=O)c1ccccc1C3=O (stereo not shown) [4-DEMETHOXYDAUNORUBICIN, 4-demethoxydaunorubicin] the “RATE CONSTANT k2” value [1] was 0.009 s⁻¹.

For CC[C@@]1(O)C[C@H](O[C@H]2C[C@H](N(C)C)[C@H](O[C@H]3C[C@H](O)[C@H](O[C@H]4CCC(=O)[C@H](C)O4)[C@H](C)O3)[C@H](C)O2)c2c(cc3c(c2O)C(=O)c2c(O)cccc2C3=O)[C@H]1C(=O)OC [ACLARUBICIN], the “RATE CONSTANT k2” value [1] was 0.0009 s⁻¹.

With COc1cccc2c1C(=O)c1c(O)c3c(c(O)c1C2=O)C[C@@](O)(C(=O)CO)C[C@@H]3O[C@H]1C[C@H](N)[C@H](O)[C@H](C)O1 [DOX, doxorubicin] the “RATE CONSTANT k2” value [1] was 0.011 s⁻¹, the “dose dependence of skin ulceration size” value ([2]; DOX 0.5 to 1.0 ml (2.0 mg/ml) i.d.) was “linearly dependent on the dose” and the “start of ulcer formation following DOX” value ([2]; DOX i.d.) was 7 to 8 days. For the same compound, the “time to complete healing of ulcer” value ([2]; DOX i.d.) was ≤ 7 weeks, the “time to maximal ulcer size following DOX” value ([2]; DOX i.d.) was 3 weeks and the “microscopic appearance of lesions” value ([2]; DOX i.d., biopsy) was “extensive coagulation-type necrosis of epidermis, dermis, and subcutaneous tissue, including muscle”. The “ulcer following DOX, compared with present results” value ([3]; 2 mg/site i.d., swine, Okano et al. 1983) was “smaller and more variable ulcer”.

In the case of CO[C@@H]1C[C@](C)(O)Cc2cc3c(c(O)c21)C(=O)c1c(O)cc2c(c1C3=O)O[C@@H]1O[C@@]2(C)[C@H](O)[C@@H](N(C)C)[C@@H]1O [MENOGARIL], the “RATE CONSTANT k2” value [1] is reported as 0.0025 s⁻¹.

In the case of Cc1c(C)c2c(c(C)c1O)CCC(C)(CCCC(C)CCCC(C)CCCC(C)C)O2 (stereo not drawn) [alpha-tocopherol], the “reduction of size of ulceration” value [3] is given as “purported to reduce the size of ulceration in some animal models but not in all”.

With COc1cccc2c1C(=O)c1c(O)c3c(c(O)c1C2=O)CC(O)(C(C)=O)CC3 (stereo not shown) [compound 8, 7-deoxydaunorubicinone] the solubility [4] was “sparingly soluble”.

With COc1cccc2c1C(=O)c1c(O)c3c(c(O)c1C2=O)C[C@@](O)(C(C)=O)C[C@@H]3O[C@H]1C[C@H](N)[C@H](O)[C@H](C)O1 [daunorubicin, reference compound] the reaction of daunorubicin [5] was 50% and the “RATE CONSTANT k2” value [1] was 0.013 s⁻¹.

In the case of C[S+](C)[O-] [dimethyl sulfoxide], the “reduction of size of ulceration” value [3] is given as “purported to reduce the size of ulceration in some animal models but not in all” and the “severity of DOX-induced injury” value ([3]; swine model, Okano et al. 1983) is given as “appeared to ameliorate the severity of injury”.
